In publication PMC11434749, “In Vitro Interaction of Binuclear Copper Complexes with Liver Drug-Metabolizing Cytochromes P450” (Pharmaceuticals, 2024):

What was measured:
[1] = system: HLM CYP enzymes; experiment: Spectral study (binding difference spectra) of the interaction with HLM CYP enzymes; design: species or system human; conditions: for Kd: HLM, CYP 1 µmol·L^−1 in 50 mmol·L^−1 potassium phosphate buffer pH 7.4, absorbance change at about 417 nm, room temperature, read-out: spectroscopic binding constant (KS); for mode of binding to HLM CYP enzymes (difference spectra): maximum at about 380 nm, minimum at about 417 nm (Type I binding spectra)
From the text: Spectral studies in the Soret region were used to detect the substrate-induced difference spectra of human liver microsomal (HLM) CYPs. […] The spectral change corresponds to the formation of a maximum formed at about 380 nm and a minimum at about 417 nm (Figure 2). The values of the corresponding spectroscopic binding constant (KS) for the tested compounds were 39.50 ± 10.06 µmol·L^−1 and 44.86 ± 9.88 µmol·L^−1, respectively. These values indicate the relatively specific binding of these complexes on CYPs.
Figure 2 Spectral determination of the interaction between tested complexes No. 5 (a) and No. 6 (b) and CYP in HLM. […] The concentration of CYP in microsomal preparation, 1 µmol·L^−1 in 50 mmol·L^−1 potassium phosphate buffer (pH 7.4).
The binding difference spectra of the interactions of complex No. 5 and complex No. 6 with microsomal CYP enzymes were followed according to established procedures. The cuvette contained HLM that was diluted to a final concentration of CYP 1 µmol·L^−1 in 50 mmol·L^−1 potassium phosphate buffer (pH 7.4). The tested compounds were dissolved in the same buffer, and the concentration ranges in experiments were 0–183 µmol·L^−1, obtained by diluting a 5 mmol·L^−1 stock solution. Spectra were recorded at room temperature by repetitive scanning between 300 and 700 nm at a scan speed of 200 nm/s. The baseline of the reference cuvette contained HLM diluted to the final concentration of CYP 1 µmol·L^−1 in 50 mmol·L^−1 potassium buffer (pH 7.4). Spectra were recorded on a Varian 4000 UV/VIS spectrophotometer (Varian, Palo Alto, CA, USA). The absorbance change at about 417 nm was plotted against the concentration of the tested compounds. Data were analyzed using the Sigma Plot v. 8.0 graphing software (Jandel Scientific, Chicago, IL, USA).

[2] = target: T1, CYP2C19 (Homo sapiens, UniProt P33261); experiment: Inhibition of CYP2C19 activity (diazepam N-desmethylation) in human liver microsomes; format: in vitro ADME; conditions: HLM, diazepam 150 µmol·L^−1, preincubation 30 min at 37 °C, Mean ± S.D.
T1 construct: Pooled human liver microsomes were obtained from Biopredic (Rennes, France); tissue Biopredic (Rennes, France); host or cells: pooled human liver microsomes, seventeen donors
T1 sequence (P33261 whole entry): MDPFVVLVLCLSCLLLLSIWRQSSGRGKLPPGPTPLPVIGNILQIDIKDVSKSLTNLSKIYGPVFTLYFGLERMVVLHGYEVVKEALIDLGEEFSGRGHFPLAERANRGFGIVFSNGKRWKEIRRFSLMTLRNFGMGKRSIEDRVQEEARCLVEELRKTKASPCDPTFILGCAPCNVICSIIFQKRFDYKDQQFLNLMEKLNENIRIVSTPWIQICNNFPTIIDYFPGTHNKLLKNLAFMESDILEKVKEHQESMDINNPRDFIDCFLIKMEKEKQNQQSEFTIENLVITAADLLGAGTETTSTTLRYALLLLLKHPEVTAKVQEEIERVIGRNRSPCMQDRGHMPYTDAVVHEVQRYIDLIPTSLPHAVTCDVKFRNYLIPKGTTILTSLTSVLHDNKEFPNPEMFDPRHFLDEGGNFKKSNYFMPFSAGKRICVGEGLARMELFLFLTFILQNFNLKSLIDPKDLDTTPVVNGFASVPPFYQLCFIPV
Protocol: The following enzyme assays were performed to determine the activities of specific CYP enzymes: CYP1A2, 7-ethoxyresorufin O-deethylation; CYP2A6, coumarin 7-hydroxylation; CYP2B6, 7-ethoxy-4-(trifluoromethyl) coumarin (EFC) O-deethylation; CYP2C8 paclitaxel 6α-hydroxylation; CYP2C9, diclofenac 4′-hydroxylation; CYP2C19, diazepam N-desmethylation; CYP2D6, bufuralol 1′-hydroxylation; CYP2E1, chlorzoxazone 6-hydroxylation; and CYP3A4/5, testosterone 6β-hydroxylation.
The incubation mixtures contained 100 mmol·L^−1 potassium phosphate buffer (pH 7.4), an NADPH-generating system (0.8 mmol·L^−1 NADP^+, 5.8 mmol·L^−1 isocitrate, 0.3 unit/mL of isocitrate dehydrogenase, and 8 mmol·L^−1 MgCl2), HLM, and an individual probe substrate.
For the determination of metabolites formed from specific substrates, a Prominence LC-20A HPLC system (Shimadzu, Kyoto, Japan) with UV detection or fluorescence detection was used (see Table 2). As a rule, reversed-phase chromatography was applied with Merck (Darmstadt, Germany) LiChroCART 250 × 4 mm (i.d.) cartridges packed with a LiChrospher RP-18 silica gel (5 µm particle size) with C-18 reversed-phase properties; a 4 × 4 mm (i.d.) guard column was also used. For the composition of the mobile phase in the respective analyses, see the original reference.
Initially, for each enzyme assay, a preliminary experiment was carried out to determine Km and Vmax to obtain the appropriate concentration of the specific substrates for the inhibition experiments (the substrate concentration was chosen in the range corresponding to the value of the Km for each particular reaction). Data were analyzed using the Sigma plot software, as mentioned above, with spectral studies. Inhibition experiments were performed with a concentration range of the tested complexes from 0.78 to 50 µmol·L^−1. The concentration range used here is in accordance with the MIC (see above) and is adequate. The experimental conditions were the same as for the determination of individual CYP activities (Table 2); the assays were performed in duplicates, with individual values differing by less than 20%. Preincubation of the reaction mixtures with the tested complexes for 30 min at 37 °C was carried out in all assays. In all cases, the inhibition of individual CYP activities was evaluated by plotting the respective remaining activity against the inhibitor concentration.

[3] = Stability on recrystallization from water and methanol; format: physicochemical; conditions: recrystallized from water and from methanol, crystals of the same composition
Protocol: [Cu2(μ-fu)(pmdien)2(H2O)2](ClO4)2 (complex No. 5) and [Cu2(μ-dtdp)(pmdien)2(H2O)2](ClO4)2 (complex No. 6) were prepared according to a published procedure. […] The structure of complex No. 6 was presented by us in [20]. The structure of complex No. 5 was measured again (the structure was previously solved with worse parameters by Mautner), and our new single crystal data were deposited under CCDC 2378750. Tables with crystal data, structure refinement, and selected bond lengths and angles are presented in ESI (Tables S1–S3). The molecular structures are depicted in Figure 1. It can be seen that the binuclear copper complexes differ in the dicarboxylato bridge. The coordination number on copper is five. All the copper centers are coordinated by three nitrogen atoms of tridentate chelating ligand pmdien and two oxygen atoms. One oxygen is from a water molecule, and the second one is from a monodentately bonding carboxylato group. The fumarato bridge contains a double bond, whereas the dithiodipropionato bridge is longer, with two sulfur atoms. Neither the double bond nor the sulfur atoms are involved in coordination with central atoms. Two perchlorate anions in each molecule are not involved in coordination. There are only hydrogen bonds among the oxygen atoms of the perchlorate group and hydrogens of the coordination cation.

| SMILES | Kd [1] | mode of binding to HLM CYP enzymes (difference spectra) [1] | IC50 [2] | IC50 ([2]; listed as complex No. 6) | stability of the complex in solvents [3] | IC50 ([2]; listed as complex No. 5) |
| --- | --- | --- | --- | --- | --- | --- |
| CN(C)CCN(C)CCN(C)C.CN(C)CCN(C)CCN(C)C.O.O.O=C([O-])CCSSCCC(=O)[O-].[Cu+2].[Cu+2].[O-][Cl+3]([O-])([O-])[O-].[O-][Cl+3]([O-])([O-])[O-] [Complex No. 6, [Cu2(μ-dtdp)(pmdien)2(H2O)2](ClO4)2] | 44.9 ± 9.88 µM | bind to HLM CYP enzymes as substrates | 6.43 ± 0.63 µM | ~6.4 µM | – | – |
| CN(C)CCN(C)CCN(C)C.CN(C)CCN(C)CCN(C)C.O.O.O=C([O-])/C=C/C(=O)[O-].[Cu+2].[Cu+2].[O-][Cl+3]([O-])([O-])[O-].[O-][Cl+3]([O-])([O-])[O-] [Complex No. 5, [Cu2(μ-fu)(pmdien)2(H2O)2](ClO4)2] | 39.5 ± 10.1 µM | bind to HLM CYP enzymes as substrates | 2.53 ± 0.59 µM | – | very good stability | ~2.5 µM |
